Measured values reported in patent publication US10064873B2, “Compounds and compositions for treating HIV with derivatives of Betulin” (GlaxoSmithKline LLC, priority 2011, dated 2018).
pEC50: −log10 of the molar value.

Test system: HIV NL4-3 wt
Test: MT4 antiviral assay, NL4-3 strain wild type
Format: cell-based, HIV-1
Settings: Human immunodeficiency virus 1, NL43; MT4 cells; read-out: EC50 NL4-3 wt

| Compound | pEC50 |
| --- | --- |
| CC(C)C1=C2[C@H]3CC[C@@H]4[C@@]5(C)CC[C@H](OC(=O)CC(C)(C)C(=O)O)C(C)(C)[C@@H]5CC[C@@]4(C)[C@]3(C)CC[C@@]2([C@H](O)CN(CCN(C)C)Cc2ccc(Cl)cc2Cl)CC1=O [Example 74, 4-(((3aR,5aR,5bR,7aR,9S,11aR,11bR,13aS)-3a-((S)-2-((2,4-dichlorobenzyl)(2-(dimethylamino)ethyl)amino)-1-hydroxyethyl)-1-isopropyl-5a,5b,8,8,11a-pentamethyl-2-oxo-3,3a,4,5,5a,5b,6,7,7a,8,9,10,11,11a,11b,12,13,13a-octadecahydro-2H-cyclopenta[a]chrysen-9-yl)oxy)-2,2-dimethyl-4-oxobutanoic acid] | 8.54 |
| CC(C)C1=C2[C@H]3CC[C@@H]4[C@@]5(C)CC[C@H](OC(=O)CC(C)(C)C(=O)O)C(C)(C)[C@@H]5CC[C@@]4(C)[C@]3(C)CC[C@@]2([C@@H](O)CN(CCN(C)C)Cc2ccc(F)cc2)CC1=O [Example 76, 4-(((3aR,5aR,5bR,7aR,9S,11aR,11bR,13aS)-3a-((R)-2-((2-(dimethylamino)ethyl)(4-fluorobenzyl)amino)-1-hydroxyethyl)-1-isopropyl-5a,5b,8,8,11a-pentamethyl-2-oxo-3,3a,4,5,5a,5b,6,7,7a,8,9,10,11,11a,11b,12,13,13a-octadecahydro-2H-cyclopenta[a]chrysen-9-yl)oxy)-2,2-dimethyl-4-oxobutanoic acid] | 9.15 |
| CC(C)C1=C2[C@H]3CC[C@@H]4[C@@]5(C)CC[C@H](OC(=O)CC(C)(C)C(=O)O)C(C)(C)[C@@H]5CC[C@@]4(C)[C@]3(C)CC[C@@]2([C@@H](O)CNCc2ccc(F)cc2)CC1=O [Example 77, 4-(((3aR,5aR,5bR,7aR,9S,11aR,11bR,13aS)-3a-((R)-2-((4-fluorobenzyl)amino)-1-hydroxyethyl)-1-isopropyl-5a,5b,8,8,11a-pentamethyl-2-oxo-3,3a,4,5,5a,5b,6,7,7a,8,9,10,11,11a,11b,12,13,13a-octadecahydro-2H-cyclopenta[a]chrysen-9-yl)oxy)-2,2-dimethyl-4-oxobutanoic acid] | 8.33 |
| CC(C)C1=C2[C@H]3CC[C@@H]4[C@@]5(C)CC[C@H](OC(=O)CC(C)(C)C(=O)O)C(C)(C)[C@@H]5CC[C@@]4(C)[C@]3(C)CC[C@@]2([C@H](O)CN(CCN(C)C)Cc2ccc(F)cc2)CC1=O [Example 78, 4-(((3aR,5aR,5bR,7aR,9S,11aR,11bR,13aS)-3a-((S)-2-((2-(dimethylamino)ethyl)(4-fluorobenzyl)amino)-1-hydroxyethyl)-1-isopropyl-5a,5b,8,8,11a-pentamethyl-2-oxo-3,3a,4,5,5a,5b,6,7,7a,8,9,10,11,11a,11b,12,13,13a-octadecahydro-2H-cyclopenta[a]chrysen-9-yl)oxy)-2,2-dimethyl-4-oxobutanoic acid] | 8.68 |
| CC(C)C1=C2[C@H]3CC[C@@H]4[C@@]5(C)CC[C@H](OC(=O)CC(C)(C)C(=O)O)C(C)(C)[C@@H]5CC[C@@]4(C)[C@]3(C)CC[C@@]2([C@H](O)CNCc2ccc(F)cc2)CC1=O [Example 79, 4-(((3aR,5aR,5bR,7aR,9S,11aR,11bR,13aS)-3a-((S)-2-((4-fluorobenzyl)amino)-1-hydroxyethyl)-1-isopropyl-5a,5b,8,8,11a-pentamethyl-2-oxo-3,3a,4,5,5a,5b,6,7,7a,8,9,10,11,11a,11b,12,13,13a-octadecahydro-2H-cyclopenta[a]chrysen-9-yl)oxy)-2,2-dimethyl-4-oxobutanoic acid] | 7.83 |
| CC(C)C1=C2[C@H]3CC[C@@H]4[C@@]5(C)CC[C@H](OC(=O)CC(C)(C)C(=O)O)C(C)(C)[C@@H]5CC[C@@]4(C)[C@]3(C)CC[C@@]2([C@@H](O)CN(CCN(C)C)Cc2ccc(Cl)cc2Cl)CC1=O [Example 80, 4-{[(1R,2R,5R,10S,13R,14R, 17S,19R)-5-[(1R)-2-{[(2,4-dichlorophenyl)methyl][2-(dimethylamino)ethyl]amino}-1-hydroxyethyl]-1,2,14,18,18-pentamethyl-7-oxo-8-(propan-2-yl)pentacyclo[11.8.0.0^ {2,10}.0^{5,9}.0^{14,19}]henicos-8-en-17-yl]oxy}-2,2-dimethyl-4-oxobutanoic acid] | 8.62 |
